Among the data in patent US8609656B2, “Heteroarylphenylurea derivative” (Chugai Seiyaku Kabushiki Kaisha, priority 2004, dated 2013) are IC50 and solubility values, retold here.

≈ marks a conversion by molar mass, not a printed value. Counter-ions that a name gives are not always drawn.

One data set deals with VEGF dependent HUVEC. Kind of data set: Cell growth inhibition test, VEGF dependent HUVEC. Format: cell-based. Conditions: Homo sapiens, 20 ng/mL of VEGF, 72 hours, WST-1, read-out: HUVEC (VEGF Dependence), 50% Growth Inhibition Concentration (IC50 value). How it is done: (§1) Cell Growth Inhibition Test
(§2) With respect to the compounds relating to the present invention and the known compound (BAY 43-9006), cell growth inhibition activity was measured.
(§3) A sample compound was in-series diluted with dimethyl sulfoxide, and then was 1/50 diluted with a Ca^2+- and Mg^2+-free phosphate-bufferized physiological saline and its 20 μL was poured to a 96-well plate. […] Each of these cell suspensions was dividedly poured to the sample added plate in 180 μL/well and cultured in a 5% carbon dioxide incubator at 37° C. After 72 hours, 20 μL of WST-(HCT 116, a product of Dojin) or WST-1 (HUVEC, a product of Roche diagnostics) was added thereto to each well and the absorbance at 450 nm (reference wavelength: 650 nm) was measured. From the growth inhibition ratio of addition of the sample compound to no-addition of the sample compound as a reference, the 50% growth inhibition IC50) of the sample compound was calculated.
(§4) With respect to the group of representative compounds of the present invention, the IC50 values of HCT 116 and HUVEC (VEGF nondependent growth and VEGF dependent growth) are shown in Tables 5-1 to 5-3.
(In general: Tetrazolium dyes change colour on reduction, which living cells bring about.)

For data set [1], the system named is VEGF non-dependent human umbilical vein endothelial cells (HUVEC). Kind of data set: Cell growth inhibition test, VEGF non-dependent HUVEC. The data set is classed as cell-based. To be noted: 72 hours, WST-1, read-out: HUVEC (VEGF Nondependence), 50% Growth Inhibition Concentration (IC50 value). As to the method:
as §1, §2, §3, §4

The subject of data set [2] is human colorectal cancer cell strain HCT 116. The experiment in a line: Cell growth inhibition test, HCT 116. Format: cell-based. Conditions: 72 hours, read-out: HCT116, 50% Growth Inhibition Concentration (IC50 value). How it is done: as §1, §2, §3, §4
Data set [3] is described as follows: Solubility to fasted state simulated intestinal fluid. Format: physicochemical. Conditions: fassif, kinetic from dmso stock, fasted state simulated intestinal fluid (pH 6.5), 37° C. As to the method: Method of Measuring Solubility to Fasted State Simulated Intestinal Fluid
To a 96-well plate, 2 μL of a dimethyl sulfoxide solution of the compound relating to the present invention or that of the compound BAY 43-9006 was poured at one time, respectively, and fasted state simulated intestinal fluid (pH 6.5) was added 200 μL by 200 μL, and the plate was shaken at 37° C. for 20 hours. The solution was filtered with a membrane filter and 101 μL of the filtrate was transferred to an UV plate, and 100 μL of a mixed solution of ethanol:water=2:1 was added thereto. On the other hand, as a standard solution, 2 μL of a dimethyl sulfoxide solution was added to a solution containing 4 μL of dimethyl sulfoxide, 400 μL of ethanol and 200 μL of water and the obtained solution was transferred 101 μL by 101 μL to the UV plate and to this UV plate, the simulated fasting bile-containing intestinal juice (pH 6.5) was added 100 μL by 100 μL. The solubility was calculated by the following equation. Solubility=(absorbance of sample solution-blank)/(absorbance of standard solution-blank)×[…]
165 μL is a concentration of the standard solution.
Composition of Fasted State Simulated Intestinal Fluid
Fasted state simulated intestinal fluid was prepared in accordance with E. Galia et al., Pharm. Res., 698, 1998.
To about 90 mL of water, 161 mg of taurocholic acid, 59 mg of L-α-phosphatidylcholine, 0.39 g of potassium dihydrogenphosphate and 0.77 g of potassium chloride were added and the pH of the mixture solution […] and the mixture solution was filtered with a membrane filter.

Data set [4] addresses T1, recombinant Raf-1 protein (activated type GST-Raf-1) (Homo sapiens, UniProt P04049).
T1 construct: fused on or other part: GST tag fused to Raf-1
The experiment in a line: RAF-1 enzyme inhibition test (33P incorporation into MEK 1 protein). Format: biochemical. To be noted: 10 μM ATP, GST-MEK1 substrate, 30° C., 45 minutes; read-out: Raf-1 Enzyme Inhibition, 50% Enzyme Inhibition Concentration (IC50 value). How it is done: RAF-1 Enzyme Inhibition Test
With respect to the compounds relating to the present invention and the known compound (BAY 43-9006):
[drawing 660] the Raf-1 protein inhibition activity was measured. The enzymatic reaction was measured by incorporation of ^33P-phosphoric acid into MEK 1 protein by a recombinant Raf-1 protein. The activity was measured by preparing 50 μL of a reaction solution containing a dimethyl sulfoxide solution of the compound relating to the present invention or the compound BAY 43-9006 at a varied concentration [as the final concentration, the reaction solution containing […] of TRIS hydrochloric buffer (pH 7.5), 1 mM of dithiothreitol, 100 mM of sodium chloride, 10 mM of potassium fluoride, 1 mM of sodium vanadate, 10 mM of magnesium chloride, 10 μM of adenosine triphosphate (ATP, containing ^33P-ATP of 12580Bq), 2 μg of GST-MEK1 and 25 ng of an activated type GST-Raf-1]; keeping the reaction solution at 30° C. for 45 minutes; adding 100% trichloroacetic acid to the reaction solution in an amount twice the volume of the reaction solution to precipitate a proteinous component; recovering the precipitate on a glass filter; and measuring the radioactivity of the recovered product. The 50% inhibition concentration (IC50) was obtained from the inhibition ratio to a sample-free reference.
The compound BAYT 43-9006 was prepared on the basis of the description (Example 41) of WO 00/42012.

The solubility is the dissolved amount per volume that the medium holds. A low value points to a poorly soluble substance.

T1 sequence (P04049 349-648 limits assumed): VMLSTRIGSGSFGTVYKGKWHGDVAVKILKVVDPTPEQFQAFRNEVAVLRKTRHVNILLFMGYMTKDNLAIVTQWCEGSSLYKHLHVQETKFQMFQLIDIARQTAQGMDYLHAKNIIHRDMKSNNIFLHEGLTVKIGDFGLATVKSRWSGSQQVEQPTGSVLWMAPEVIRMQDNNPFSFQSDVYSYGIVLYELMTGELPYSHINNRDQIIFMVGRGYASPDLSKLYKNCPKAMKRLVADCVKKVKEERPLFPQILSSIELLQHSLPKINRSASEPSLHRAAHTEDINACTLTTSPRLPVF

Regarding `O=C(Nc1ccc(-n2cnc3cnccc32)cc1)Nc1ccc(Cl)c(C(F)(F)F)c1` [Table 1, Compound 1, 1-(4-chloro-3-(trifluoromethyl)phenyl)-3-(4-imidazo[4,5-c]pyridin-1-ylphenyl)urea], the IC50 in the data set on VEGF dependent HUVEC turned out to be 92 nM; in data set [1] it was 2100 nM; in data set [2] it was 1200 nM.

On to `Nc1ncnc2c1ncn2-c1ccc(N(O)C(=O)Nc2ccc(Cl)c(C(F)(F)F)c2)cc1` [Table 1, Compound 49, 1-[4-(6-Aminopurin-9-yl)phenyl]-3-(4-chloro-3-(trifluoromethyl)phenyl)-1-hydroxyurea hydrochloride], for which the IC50 in the data set with VEGF dependent HUVEC is 190 nM; in data set [1], 4100 nM; in data set [2] it was 7300 nM.

On to `CNc1ncnc2c1ncn2-c1ccc(N(O)C(=O)Nc2ccc(Cl)c(C(F)(F)F)c2)cc1` [Table 1, Compound 53, 3-(4-Chloro-3-(trifluoromethyl)phenyl)-1-hydroxy-1-[4-(6-(methylamino)pruin-9-yl)phenyl]urea], for which the IC50 came out at 440 nM in the data set on VEGF dependent HUVEC, 2800 nM in data set [1] and 3400 nM in data set [2].

With `CNc1ncnc2c1ncn2-c1ccc(NC(=O)Nc2cccc(C(F)(F)F)c2)cc1` [Table 2, Compound 19, 1-[4-(6-(Methylamino)purin-9-yl)phenyl]-3-(3-(trifluoro-methyl)phenyl)urea], the IC50 in the data set on VEGF dependent HUVEC came to 57 nM; in data set [1], 1900 nM; in data set [2] it was 1100 nM.

With `C=Cc1nc2c(N)ncnc2n1-c1ccc(NC(=O)Nc2cc(CN3CCN(C)CC3)cc(C(F)(F)F)c2)cc1` [Table 2, Compound 28], in data set [3], the solubility at 20 h is 238 µg/mL (≈ 431 µM). In addition, the IC50 in data set [4] was 69 nM.

For `CNc1ncnc2c1ncn2-c1ccc(NC(=O)Nc2ccc(N(C)C)c(C(F)(F)F)c2)cc1` [Table 2, Compound 42, 1-(4-Dimethylamino-3-(trifluoromethyl)phenyl)-3-[4-(6-(methylamino)purin-9-yl)phenyl]urea], the figures for the IC50 (with VEGF dependent HUVEC; in data set [1]; in data set [2]) were 56 nM, 4000 nM and 1800 nM, respectively.

As to `Nc1ncnc2c1ncn2-c1ccc(NC(=O)Nc2cc(Br)cc(C(F)(F)F)c2)cc1` [Table 2, Compound 43], the results for the IC50 (in the data set on VEGF dependent HUVEC; in data set [1]; in data set [2]) were 150 nM, 3800 nM and 1800 nM, respectively.

Consider `CNc1ncnc2c1ncn2-c1ccc(NC(=O)Nc2ccc(CN3CCN(C)CC3)c(C(F)(F)F)c2)cc1` [Table 2, Compound 46, 1-[4-(6-(Methylamino)purin-9-yl)phenyl]-3-[4-(4-methylpiperazin-1-ylmethyl)-3-(trifluoromethyl)phenyl]urea], for which the IC50 with VEGF dependent HUVEC was determined as 2.5 nM; in data set [1], 130 nM; in data set [2] it was 240 nM.

With `CNc1ncnc2c1ncn2-c1ccc(NC(=O)Nc2ccc(CN3CCOCC3)c(C(F)(F)F)c2)cc1` [Table 2, Compound 47, 1-[4-(6-(Methylamino)purin-9-yl)phenyl]-3-(4-morpholin-4-ylmethyl-3-(trifluoromethyl)phenyl)urea], the IC50 with VEGF dependent HUVEC came out at 29 nM; in data set [1], 700 nM; in data set [2], 900 nM.

Take `CNc1ncnc2c1ncn2-c1ccc(NC(=O)Nc2cc(N(C)C)cc(C(F)(F)F)c2)cc1` [Table 2, Compound 48, 1-(3-Dimethylamino-5-(trifluoromethyl)phenyl)-3-[4-(6-(methylamino)purin-9-yl)phenyl]urea]: the IC50 in the data set with VEGF dependent HUVEC was found to be 280 nM; in data set [1] it was 3700 nM; in data set [2] it was 2400 nM.

In the case of `CNc1ncnc2c1ncn2-c1ccc(NC(=O)Nc2ccc(OCCN3CCOCC3)c(C(F)(F)F)c2)cc1` [Table 2, Compound 53, 1-[4-(6-(Methylamino)purin-9-yl)phenyl]-3-[4-(2-morpholin-4-yl-ethoxy)-3-(trifluoromethyl)phenyl]urea], the IC50 in the data set with VEGF dependent HUVEC worked out at 650 nM; in data set [1], 1700 nM; in data set [2] it was 1900 nM.

On to `CNc1ncnc2c1ncn2-c1ccc(NC(=O)Nc2cc(CCN3CCOCC3)cc(C(F)(F)F)c2)cc1` [Table 2, Compound 73, 1-[4-(6-(Methylamino)purin-9-yl)phenyl]-3-[3-(2-morpholin-4-yl-ethyl)-5-(trifluoromethyl)phenyl]urea], for which the IC50 in data set [4] is 84 nM.

Consider `CNc1ncnc2c1ncn2-c1ccc(NC(=O)Nc2ccc(CCCN3CCCCC3)c(C(F)(F)F)c2)cc1` [Table 2, Compound 78, 1-[4-(6-(Methylamino)purin-9-yl)phenyl]-3-[4-[3-piperidin-1-yl-propyl]-3-(trifluoromethyl)phenyl]-urea], for which, in data set [4], the IC50 is 140 nM.

On to `CNc1ncnc2c1ncn2-c1ccc(NC(=O)Nc2cc(OC3CCN(C)CC3)cc(C(F)(F)F)c2)cc1` [Table 2, Compound 91, 1-[4-(6-(Methylamino)purin-9-yl)phenyl]-3-[3-(1-methyl-piperidin-4-yloxy)-5-(trifluoromethyl)phenyl]-urea], for which, in data set [4], the IC50 is 270 nM.

For `Nc1ncnc2ncn(-c3ccc(NC(=O)Nc4ccc(Cl)c(C(F)(F)F)c4)cc3)c12` [Table 3, Compound 1, 1-[4-(6-(Aminopurin-7-yl)phenyl)-3-(4-chloro-3-(trifluoromethyl)phenyl)urea hydrochloride], in data set [4], the IC50 came to 51 nM.

Molecule `CN1CCN(Cc2cc(NC(=O)Nc3ccc(-n4cnc5ncnc(N)c54)cc3)cc(C(F)(F)F)c2)CC1` [Table 3, Compound 4] came in with a solubility at 20 h in data set [3] of 219 µg/mL (≈ 417 µM). Further, the IC50 in data set [4] amounted to 53 nM.

For `CN(C)CCNC(=O)c1cc(NC(=O)Nc2ccc(-n3cnc4ncnc(N)c43)cc2)cc(C(F)(F)F)c1` [Table 3, Compound 9, 3-{3-[4-(6-Aminopurin-7-yl)phenyl]ureido}-N-(2-(dimethylamino)ethyl)-5-(trifluoromethyl)benzamide], in data set [4], the IC50 stood at 85 nM.

Take `CNc1ncnc2c1ncn2-c1ccc(NC(=O)Nc2cc(CCN3CCCCC3)cc(C(F)(F)F)c2)cc1` [Table 3, Compound 30, 1-[4-(6-(Methylamino)purin-9-yl)phenyl]-3-[3-(2-piperidin-1-yl-ethyl)-5-(trifluoromethyl)phenyl]urea]: the IC50 in data set [4] is 170 nM.

For the molecule `CNc1ncnc2c1ncn2-c1ccc(NC(=O)Nc2cc(CCN3CCCC3)cc(C(F)(F)F)c2)cc1` [Table 3, Compound 31, 1-[4-(6-(Methylamino)purin-9-yl)phenyl]-3-[3-(2-pyrrolidin-1-yl-ethyl)-5-(trifluoromethyl)phenyl]urea], the IC50 in data set [4] came out at 130 nM.

In turn, `CNc1ncnc2c1ncn2-c1ccc(NC(=O)Nc2cc(CCCN3CCCC3)cc(C(F)(F)F)c2)cc1` [Table 3, Compound 45, 1-[4-(6-(Methylamino)purin-9-yl)phenyl]-3-[3-(3-pyrrolidin-1-yl-propyl)-5-(trifluoromethyl)phenyl]-urea] returned a solubility at 20 h in data set [3] of 79 µg/mL (≈ 147 µM). In data set [4], the IC50 was found to be 73 nM.
